pIC50: −log10 of the molar value.
Biological target: T1, Glucocorticoid Receptor (GR) (Homo sapiens, UniProt P04150)
T1 construct: purchased Invitrogen P2893
T1 sequence (P04150 1-777): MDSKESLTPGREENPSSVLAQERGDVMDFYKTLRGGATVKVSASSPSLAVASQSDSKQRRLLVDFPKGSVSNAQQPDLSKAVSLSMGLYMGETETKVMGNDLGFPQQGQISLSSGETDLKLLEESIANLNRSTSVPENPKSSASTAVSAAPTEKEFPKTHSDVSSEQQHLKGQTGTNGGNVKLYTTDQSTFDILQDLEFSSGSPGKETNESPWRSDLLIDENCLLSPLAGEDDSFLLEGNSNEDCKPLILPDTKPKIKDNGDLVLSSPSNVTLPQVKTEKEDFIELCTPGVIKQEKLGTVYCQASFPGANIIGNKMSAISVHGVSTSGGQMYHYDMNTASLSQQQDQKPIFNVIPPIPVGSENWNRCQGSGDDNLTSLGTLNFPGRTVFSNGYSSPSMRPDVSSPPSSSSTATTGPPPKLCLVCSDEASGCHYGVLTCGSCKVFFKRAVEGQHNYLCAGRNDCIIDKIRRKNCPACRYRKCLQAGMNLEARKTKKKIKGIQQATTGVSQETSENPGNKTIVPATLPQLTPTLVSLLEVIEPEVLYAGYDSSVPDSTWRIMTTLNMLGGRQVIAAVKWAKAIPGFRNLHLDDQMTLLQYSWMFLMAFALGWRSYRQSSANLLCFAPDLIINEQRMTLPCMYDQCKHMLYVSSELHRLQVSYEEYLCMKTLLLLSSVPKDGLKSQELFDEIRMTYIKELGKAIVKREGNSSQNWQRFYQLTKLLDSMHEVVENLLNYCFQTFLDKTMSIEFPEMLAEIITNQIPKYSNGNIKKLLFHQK
Assay: GR Florescence Polarization Assay (PolarScreen Glucocorticoid Receptor Competitor Assay, Red)
Conditions: Fluorescense polarization binding ranges; competition with fluorescent glucocorticoid, incubated overnight at 4° C.
Method: GR Florescence Polarization Assay Florescence polarization assays were carried out using the PolarScreen™ Glucocorticoid Receptor Competitor Assay, Red from Invitrogen (P2893). The assay buffer was prepared according to the manufacturer's protocol and used to dilute the fluorescent glucocorticoid and GR. Compounds were prepared and serial diluted 1:4 in DMSO. Compound, fluorescent glucocorticoid and GR were added in a final volume of 20 μL and incubated overnight at 4° C. Fluorescent polarization was measured on the Perkinelmer Envision®.

Row | SMILES | pIC50
1 | CCOC[C@@]1(O)CC[C@@]2(Cc3ccccc3)c3ccc(C(=O)Nc4cccnc4C)cc3CCC[C@H]2C1 (racemic) [Example 33, (7aS,9R,11aS)-11a-Benzyl-9-ethoxymethyl-9-hydroxy-6,7,7a,8,9,10,11,11a-octahydro-5H-dibenzo[a,c]cycloheptene-3-carboxylic acid (2-methyl-pyridin-3-yl)-amide; compound with (7aR,9S,11aR)-11a-benzyl-9-ethoxymethyl-9-hydroxy-6,7,7a,8,9,10,11,11a-octahydro-5H-dibenzo[a,c]cycloheptene-3-carboxylic acid (2-methyl-pyridin-3-yl)-amide] | > 7.00
2 | O=C1CCCC[C@H]2CC3(CC[C@@]12Cc1ccccc1)OCCO3 (racemic) [Example 37, (4aS,9aS)-4a-benzyloctahydrospiro[benzo[7]annulene-2,2′-[1,3]dioxolan]-5(1H)-one; compound with (4aR,9aR)-4a-benzyloctahydrospiro[benzo[7]annulene-2,2′-[1,3]dioxolan]-5(1H)-one] | < 5.00
3 | Oc1ccc2c(c1)CCC[C@H]1C[C@@](O)(c3ccccc3)[C@H](O)C[C@@]21Cc1ccccc1 (racemic) [Example 42, (2R,3R,4aS,11bR)-11b-Benzyl-3-phenyl-2,3,4,4a,5,6,7,11b-octahydro-1H-dibenzo[a,c]cycloheptene-2,3,9-triol compound with (2S,3S,4aR,11bS)-11b-benzyl-3-phenyl-2,3,4,4a,5,6,7,11b-octahydro-1H-dibenzo[a,c]cycloheptene-2,3,9-triol] | 6.00 to 7.00
4 | CCC[C@@]1(O)CC[C@@]2(CC(F)(F)F)c3ccc(C(=O)Nc4cccnc4C)cc3CCC[C@H]2C1 (racemic) [Example 52] | > 7.00
5 | Cc1ncccc1NC(=O)c1ccc2c(c1)CCC[C@H]1C[C@@](O)(CC(C)C)CC[C@@]21CC(F)(F)F (racemic) [Example 63, (7aS,9S,11aS)-9-Hydroxy-9-isobutyl-11a-(2,2,2-trifluoro-ethyl)-6,7,7a,8,9,10,11,11a-octahydro-5H-dibenzo[a,c]cycloheptene-3-carboxylic acid (2-methyl-pyridin-3-yl)-amide; compound with (7aR,9R,11aR)-9-hydroxy-9-isobutyl-11a-(2,2,2-trifluoro-ethyl)-6,7,7a,8,9,10,11,11a-octahydro-5H-dibenzo[a,c]cycloheptene-3-carboxylic acid (2-methyl-pyridin-3-yl)-amide] | > 7.00
6 | CC[C@@]12CC[C@](O)(CC#N)C[C@@H]1CCCc1cc(C(=O)Nc3cccnc3C)ccc12 (racemic) [Example 64, (7aS,9R,11aR)-9-Cyanomethyl-11a-ethyl-9-hydroxy-6,7,7a,8,9,10,11,11a-octahydro-5H-dibenzo[a,c]cycloheptene-3-carboxylic acid (2-methyl-pyridin-3-yl)-amide; compound with (7aR,9S,11aS)-9-cyanomethyl-11a-ethyl-9-hydroxy-6,7,7a,8,9,10,11,11a-octahydro-5H-dibenzo[a,c]cyclo heptene-3-carboxylic acid (2-methyl-pyridin-3-yl)-amide] | 6.00 to 7.00
7 | Cc1ncccc1NC(=O)c1ccc2c(c1)CCC[C@H]1C[C@@](O)(CC#N)CC[C@@]21Cc1ccccc1 (racemic) [Example 65] | > 7.00
8 | CC[C@@]12CC[C@](O)(COCC(F)(F)F)C[C@@H]1CCCc1cc(C(=O)Nc3cccnc3C)ccc12 (racemic) [Example 92, (7aS,9R,11aR)-11a-ethyl-9-hydroxy-9-(2,2,2-trifluoro-ethoxymethyl)-6,7,7a,8,9,10,11,11a-octahydro-5H-dibenzo[a,c]cycloheptene-3-carboxylic acid (2-methyl-pyridin-3-yl)-amide: compound with (7aR,9S,11aS)-11a-ethyl-9-hydroxy-9-(2,2,2-trifluoro-ethoxymethyl)-6,7,7a,8,9,10,11,11a-octahydro-5H-dibenzo[a,c]cycloheptene-3-carboxylic acid (2-methyl-pyridin-3-yl)-amide] | > 7.00
9 | Cc1ncccc1NC(=O)c1ccc2c(c1)CCC[C@H]1C[C@@](O)(COCC(F)(F)F)CC[C@@]21Cc1ccccc1 (racemic) [Example 95] | > 7.00
10 | Cc1ncccc1NC(=O)c1ccc2c(c1)CCC[C@H]1C[C@@](O)(COC3COC3)CC[C@@]21Cc1ccccc1 (racemic) [Example 96] | > 7.00
11 | Cc1ncccc1NC(=O)c1ccc2c(c1)CCC[C@H]1C[C@@](O)(COC(C)C)CC[C@@]21Cc1ccccc1 (racemic) [Example 97] | > 7.00
12 | CCCOC[C@@]1(O)CC[C@@]2(Cc3ccccc3)c3ccc(C(=O)Nc4cccnc4C)cc3CCC[C@H]2C1 (racemic) [Example 101] | > 7.00
13 | Cc1ncccc1NC(=O)c1ccc2c(c1)CCC[C@H]1C[C@@](O)(COC3CCOCC3)CC[C@@]21Cc1ccccc1 (racemic) [Example 102] | > 7.00
14 | Cc1ncccc1NC(=O)c1ccc2c(c1)CCC[C@H]1C[C@@](O)(COc3ccccc3)CC[C@@]21Cc1ccccc1 (racemic) [Example 103] | > 7.00
15 | Cc1ncccc1NC(=O)c1ccc2c(c1)CCC[C@H]1C[C@@](O)(CO)CC[C@@]21Cc1ccccc1 (racemic) [Example 104] | 6.00 to 7.00
16 | Cc1ncccc1NC(=O)c1ccc2c(c1)CCC[C@H]1C[C@@](O)(COCCS(C)(=O)=O)CC[C@@]21Cc1ccccc1 (racemic) [Example 105] | > 7.00
17 | CCC[C@@]1(O)CC[C@@]2(CC)c3ccc(C(=O)Nc4cccnc4C)cc3OCC[C@H]2C1 (racemic) [Example 119, (7aS,9R,11aR)-11a-Ethyl-9-hydroxy-N-(2-methylpyridin-3-yl)-9-propyl-6,7,7a,8,9,10,11,11a-octahydrodibenzo[b,d]oxepine-3-carboxamide; compound with (7aR,9S,11aS)-11a-ethyl-9-hydroxy-N-(2-methylpyridin-3-yl)-9-propyl-6,7,7a,8,9,10,11,11a-octahydrodibenzo[b,d]oxepine-3-carboxamide] | > 7.00
18 | CCC[C@@]1(O)CC[C@@]2(CC)c3ccc(C(=O)Nc4cccnc4C)cc3C=CC[C@H]2C1 (racemic) [Example 128, (7aS,9R,11aR)-11a-Ethyl-9-hydroxy-9-propyl-7a,8,9,10,11,11a-hexahydro-7H-dibenzo[a,c]cycloheptene-3-carboxylic acid (2-methyl-pyridin-3-yl)-amide compound with (7aR,9S,11aS)-11a-ethyl-9-hydroxy-9-propyl-7a,8,9,10,11,11a-hexahydro-7H-dibenzo[a,c]cycloheptene-3-carboxylic acid (2-methyl-pyridin-3-yl)-amide] | > 7.00
19 | CC[C@@]12CC[C@](O)(c3ccccc3)C[C@@H]1CCOc1cc(C(=O)Nc3cccnc3C)ccc12 (racemic) [Example 134, (7aS,9R,11aR)-11a-Ethyl-9-hydroxy-N-(2-methylpyridin-3-yl)-9-phenyl-6,7,7a,8,9,10,11,11a-octahydrodibenzo[b,d]oxepine-3-carboxamide; compound with (7aR,9S,11aS)-11a-ethyl-9-hydroxy-N-(2-methylpyridin-3-yl)-9-phenyl-6,7,7a,8,9,10,11,11a-octahydrodibenzo[b,d]oxepine-3-carboxamide] | > 7.00
20 | CC[C@@]12C[C@@H](O)[C@](O)(c3ccccc3)C[C@@H]1CCOc1cc(C(=O)Nc3cccnc3C)ccc12 (racemic) [Example 135, (7aS,9R,10R,11aR)-11a-Ethyl-9,10-dihydroxy-N-(2-methylpyridin-3-yl)-9-phenyl-6,7,7a,8,9,10,11,11a-octahydrodibenzo[b,d]oxepine-3-carboxamide; compound with (7aR,9S,10S,11aS)-11a-ethyl-9,10-dihydroxy-N-(2-methylpyridin-3-yl)-9-phenyl-6,7,7a,8,9,10,11,11a-octahydrodibenzo[b,d]oxepine-3-carboxamide] | 6.00 to 7.00
21 | CCC[C@@]1(O)CC[C@@]2(CC)c3ccc(C(=O)Nc4cccnc4C)cc3COC[C@H]2C1 (racemic) [Example 136, (7aS,9R,11aR)-11a-Ethyl-9-propyl-9-hydroxy-N-(2-methylpyridin-3-yl)-5,7,7a,8,9,10,11,11a-octahydrodibenzo[c,e]oxepine-3-carboxamide; compound with (7aR,9S,11aS)-11a-ethyl-9-propyl-9-hydroxy-N-(2-methylpyridin-3-yl)-5,7,7a,8,9,10,11,11a-octahydrodibenzo[c,e]oxepine-3-carboxamide] | > 7.00

Reference: US20120238549A1, “Nuclear Hormone Receptor Modulators” (ABBOTT LABORATORIES, priority 2011, published 2012)
